Test results taken from ChEMBL document CHEMBL1201862, “PubChem BioAssay data set” (2004).
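Five compound concentrations were applied to cells in 96-well plates for 48 hours; endpoints were derived by simple linear interpolation of the resulting dose-response curve. GI50 is the concentration that inhibits growth by half.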 Calls of active or inactive are those of the source. Rule as the data show it: active = GI50 up to about 1.1 µM and inactive = higher.

Tests used:
Test in all cases: NCI tumour cell line growth inhibition, 48 h
HOP-92 = system: HOP-92
RPMI-8226 = system: RPMI-8226
A498 = system: A498
OVCAR-3 = system: OVCAR-3
DMS-114 = system: DMS-114
IGROV-1 = system: IGROV-1
M14 = system: M14
SK-MEL-2 = system: SK-MEL-2
UO-31 = system: UO-31
SF-268 = system: SF-268
RXF 393 = system: RXF 393
UACC-62 = system: UACC-62
OVCAR-5 = system: OVCAR-5
SN12C = system: SN12C
CCRF-CEM = system: CCRF-CEM
NCI-H226 = system: NCI-H226
HOP-18 = system: HOP-18
TK-10 = system: TK-10
HCT-116 = system: HCT-116
NCI-H522 = system: NCI-H522
KM-20L2 = system: KM-20L2
NCI-H460 = system: NCI-H460
SK-OV-3 = system: SK-OV-3
SW-620 = system: SW-620
M19-MEL = system: M19-MEL
SNB-78 = system: SNB-78
U-251 = system: U-251
EKVX = system: EKVX
DLD-1 = system: DLD-1
CAKI-1 = system: CAKI-1
SR = system: SR
OVCAR-4 = system: OVCAR-4
UACC-257 = system: UACC-257
Malme-3M = system: Malme-3M
DMS-273 = system: DMS-273
SF-295 = system: SF-295
SF-539 = system: SF-539
A549 = system: A549
SK-MEL-28 = system: SK-MEL-28
KM12 = system: KM12
XF498 = system: XF498
ACHN = system: ACHN
SK-MEL-5 = system: SK-MEL-5
OVCAR-8 = system: OVCAR-8
LOX IMVI = system: LOX IMVI
K562 = system: K562
SNB-19 = system: SNB-19
HL-60 = system: HL-60
LXFL 529 = system: LXFL 529
RXF 631 = system: RXF 631
COLO 205 = system: COLO 205
HOP-62 = system: HOP-62
MOLT-4 = system: MOLT-4
SNB-75 = system: SNB-75
NCI-H23 = system: NCI-H23
786-0 = system: 786-0
HT-29 = system: HT-29
HCC 2998 = system: HCC 2998
HCT-15 = system: HCT-15

## OCC1CC2CC1C1(C2)OCCO1 (stereo not given)
HOP-92
  GI50: > 100 µM (inactive)
RPMI-8226
  GI50: > 100 µM (inactive)
A498
  GI50: > 100 µM (inactive)
OVCAR-3
  GI50: > 100 µM (inactive)
DMS-114
  GI50: > 100 µM (inactive)
IGROV-1
  GI50: > 100 µM (inactive)
M14
  GI50: > 100 µM (inactive)
SK-MEL-2
  GI50: > 100 µM (inactive)
UO-31
  GI50: > 100 µM (inactive)
SF-268
  GI50: > 100 µM (inactive)
RXF 393
  GI50: > 100 µM (inactive)
UACC-62
  GI50: > 100 µM (inactive)
OVCAR-5
  GI50: > 100 µM (inactive)
SN12C
  GI50: > 100 µM (inactive)
CCRF-CEM
  GI50: > 100 µM (inactive)
NCI-H226
  GI50: > 100 µM (inactive)
HOP-18
  GI50: > 100 µM (inactive)
TK-10
  GI50: > 100 µM (inactive)
HCT-116
  GI50: > 100 µM (inactive)
NCI-H522
  GI50: > 100 µM (inactive)
KM-20L2
  GI50: > 100 µM (inactive)
NCI-H460
  GI50: > 100 µM (inactive)
SK-OV-3
  GI50: > 100 µM (inactive)
SW-620
  GI50: > 100 µM (inactive)
M19-MEL
  GI50: > 100 µM (inactive)
SNB-78
  GI50: > 100 µM (inactive)
U-251
  GI50: > 100 µM (inactive)
EKVX
  GI50: > 100 µM (inactive)
DLD-1
  GI50: > 100 µM (inactive)
CAKI-1
  GI50: > 100 µM (inactive)
SR
  GI50: > 100 µM (inactive)
OVCAR-4
  GI50: > 100 µM (inactive)
UACC-257
  GI50: > 100 µM (inactive)
Malme-3M
  GI50: > 100 µM (inactive)
DMS-273
  GI50: > 100 µM (inactive)
SF-295
  GI50: > 100 µM (inactive)
SF-539
  GI50: > 100 µM (inactive)
A549
  GI50: > 100 µM (inactive)
SK-MEL-28
  GI50: > 100 µM (inactive)
KM12
  GI50: > 100 µM (inactive)
XF498
  GI50: > 100 µM (inactive)
ACHN
  GI50: > 100 µM (inactive)
SK-MEL-5
  GI50: > 100 µM (inactive)
OVCAR-8
  GI50: > 100 µM (inactive)
LOX IMVI
  GI50: > 100 µM (inactive)
K562
  GI50: > 100 µM (inactive)
SNB-19
  GI50: > 100 µM (inactive)
HL-60
  GI50: > 100 µM (inactive)
LXFL 529
  GI50: > 100 µM (inactive)
RXF 631
  GI50: > 100 µM (inactive)
COLO 205
  GI50: > 100 µM (inactive)
HOP-62
  GI50: > 100 µM (inactive)
MOLT-4
  GI50: > 100 µM (inactive)
SNB-75
  GI50: > 100 µM (inactive)
NCI-H23
  GI50: > 100 µM (inactive)
786-0
  GI50: > 100 µM (inactive)
HT-29
  GI50: > 100 µM (inactive)

## CC(C)c1ccc(/C=C/c2cc(C(=O)NNC(=O)NC3CCCCC3)nc(S)n2)cc1
HOP-92
  GI50: > 100 µM (inactive)
RPMI-8226
  GI50: > 100 µM (inactive)
A498
  GI50: > 100 µM (inactive)
OVCAR-3
  GI50: > 100 µM (inactive)
DMS-114
  GI50: > 100 µM (inactive)
IGROV-1
  GI50: > 100 µM (inactive)
M14
  GI50: > 100 µM (inactive)
UO-31
  GI50: > 100 µM (inactive)
SF-268
  GI50: > 100 µM (inactive)
RXF 393
  GI50: > 100 µM (inactive)
UACC-62
  GI50: > 100 µM (inactive)
HCC 2998
  GI50: > 100 µM (inactive)
OVCAR-5
  GI50: > 100 µM (inactive)
SN12C
  GI50: > 100 µM (inactive)
NCI-H226
  GI50: > 100 µM (inactive)
HOP-18
  GI50: > 100 µM (inactive)
TK-10
  GI50: > 100 µM (inactive)
HCT-116
  GI50: > 100 µM (inactive)
NCI-H522
  GI50: > 100 µM (inactive)
KM-20L2
  GI50: > 100 µM (inactive)
NCI-H460
  GI50: > 100 µM (inactive)
SK-OV-3
  GI50: > 100 µM (inactive)
SW-620
  GI50: > 100 µM (inactive)
M19-MEL
  GI50: > 100 µM (inactive)
SNB-78
  GI50: > 100 µM (inactive)
U-251
  GI50: > 100 µM (inactive)
EKVX
  GI50: > 100 µM (inactive)
DLD-1
  GI50: > 100 µM (inactive)
CAKI-1
  GI50: > 100 µM (inactive)
OVCAR-4
  GI50: > 100 µM (inactive)
UACC-257
  GI50: > 100 µM (inactive)
HCT-15
  GI50: > 100 µM
Malme-3M
  GI50: > 100 µM (inactive)
DMS-273
  GI50: > 100 µM (inactive)
SF-295
  GI50: > 100 µM (inactive)
SF-539
  GI50: > 100 µM (inactive)
A549
  GI50: > 100 µM (inactive)
SK-MEL-28
  GI50: > 100 µM (inactive)
KM12
  GI50: > 100 µM (inactive)
XF498
  GI50: > 100 µM (inactive)
ACHN
  GI50: > 100 µM (inactive)
SK-MEL-5
  GI50: > 100 µM (inactive)
OVCAR-8
  GI50: > 100 µM (inactive)
LOX IMVI
  GI50: > 100 µM (inactive)
SNB-19
  GI50: > 100 µM (inactive)
LXFL 529
  GI50: > 100 µM (inactive)
RXF 631
  GI50: > 100 µM (inactive)
COLO 205
  GI50: > 100 µM (inactive)
HOP-62
  GI50: > 100 µM (inactive)
SNB-75
  GI50: > 100 µM (inactive)
NCI-H23
  GI50: > 100 µM (inactive)
786-0
  GI50: > 100 µM (inactive)
HT-29
  GI50: > 100 µM (inactive)
